Values joined by “and” are separate entries in the source; they are usually repeats but may differ in a detail not shown here. Identical values can stand only once. Records with an inconclusive call do not appear.
System: BDF1 mice, colon carcinoma 38 sc, T/C %
Test: NCI In Vivo Anticancer Drug Screen. Data for tumor model Colon Carcinoma 38 (subcutaneous) in B6D2F1 (BDF1) mice
Details: endpoint: median tumor weight (est.), higher = larger tumour
Outline: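 Transplantable tumor in mice; compound-treated vs vehicle-dosed controls. Measured survival or tumor size; value = T ÷ C.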

[1] = dose: 12.5 mg/kg/injection, schedule: Q07DX002 (ip), vehicle: saline
[2] = dose: 25.0 mg/kg/injection, schedule: Q07DX002 (ip), vehicle: saline
[3] = dose: 50.0 mg/kg/injection, schedule: Q07DX002 (ip), vehicle: saline
[4] = dose: 100.0 mg/kg/injection, schedule: Q07DX002 (ip), vehicle: saline
[5] = dose: 200.0 mg/kg/injection, schedule: Q07DX002 (ip), vehicle: saline
[6] = dose: 12.5 mg/kg/injection, schedule: Q07DX002 (ip), vehicle: saline with Tween-80
[7] = dose: 50.0 mg/kg/injection, schedule: Q07DX002 (ip), vehicle: saline with Tween-80
[8] = dose: 100.0 mg/kg/injection, schedule: Q07DX002 (ip), vehicle: saline with Tween-80
[9] = dose: 200.0 mg/kg/injection, schedule: Q07DX002 (ip), vehicle: saline with Tween-80
[10] = dose: 400.0 mg/kg/injection, schedule: Q07DX002 (ip), vehicle: saline with Tween-80

## C=C(C)[C@@H]1CC[C@@H]2C(=CC[C@]3(C)C([C@H](C)CC/C=C(/C)C(=O)O)CC[C@@]23C)[C@@]1(C)CCC(=O)O (some centres undefined)
dose: 50.0 mg/kg/injection, schedule: Q07DX002 (ip), vehicle: saline + alcohol
  T/C: 90 % of control
dose: 100.0 mg/kg/injection, schedule: Q07DX002 (ip), vehicle: saline + alcohol
  T/C: 91 % of control
dose: 200.0 mg/kg/injection, schedule: Q07DX002 (ip), vehicle: saline + alcohol
  T/C: 105 % of control
dose: 400.0 mg/kg/injection, schedule: Q07DX002 (ip), vehicle: saline + alcohol
  T/C: 45 % of control

## OCCN1CCN(CCCN2c3ccccc3Sc3ccc(C(F)(F)F)cc32)CC1
dose: 3.12 mg/kg/injection, schedule: Q07DX002 (ip), vehicle: saline
  T/C: 115 % of control
dose: 6.25 mg/kg/injection, schedule: Q07DX002 (ip), vehicle: saline
  T/C: 91 % of control
[1]
  T/C: 61 % of control
[2]
  T/C: 67 % of control
[3]
  T/C: 56 % of control

## O=C1C=CC(n2cc(F)c(=O)[nH]c2=O)O1 (centres undefined)
[1]
  T/C: 113 % of control
[4]
  T/C: 54 % of control
[5]
  T/C: 116 % of control

## O=C1OC(C(O)CO)C(O)=C1O (centres undefined)
[3]
  T/C: 43 % of control
[4]
  T/C: 100 % of control
dose: 800.0 mg/kg/injection, schedule: Q07DX002 (ip), vehicle: saline
  T/C: 83 % of control
dose: 1600.0 mg/kg/injection, schedule: Q07DX002 (ip), vehicle: saline
  T/C: 100 % of control

## Cc1cc2c(cc1C)C(=O)c1c(O)c3c(c(O)c1C2=O)C[C@@](O)(C(=O)CO)C[C@@H]3OC1CC(N)C(O)C(C)O1 (some centres undefined)
dose: 4.75 mg/kg/injection, schedule: Q07DX002 (ip), vehicle: distilled water + Tween-80
  T/C: 51 % of control
dose: 6.33 mg/kg/injection, schedule: Q07DX002 (ip), vehicle: distilled water + Tween-80
  T/C: 65 % of control
dose: 8.44 mg/kg/injection, schedule: Q07DX002 (ip), vehicle: distilled water + Tween-80
  T/C: 28 % of control
dose: 11.25 mg/kg/injection, schedule: Q07DX002 (ip), vehicle: distilled water + Tween-80
  T/C: 23 % of control
dose: 15.0 mg/kg/injection, schedule: Q07DX002 (ip), vehicle: distilled water + Tween-80
  T/C: 17 % of control

## Cc1ccc(NCC2(/N=C/c3ccccc3)OC(CO)C(O)C2O)cc1 (centres undefined)
dose: 12.5 mg/kg/injection, schedule: Q07DX003 (ip), vehicle: Klucel (hydroxypropylcellulose) (HPC)
  T/C: 110 % of control
dose: 25.0 mg/kg/injection, schedule: Q07DX003 (ip), vehicle: Klucel (hydroxypropylcellulose) (HPC)
  T/C: 69 % of control
dose: 50.0 mg/kg/injection, schedule: Q07DX003 (ip), vehicle: Klucel (hydroxypropylcellulose) (HPC)
  T/C: 117 % of control
dose: 100.0 mg/kg/injection, schedule: Q07DX003 (ip), vehicle: Klucel (hydroxypropylcellulose) (HPC)
  T/C: 106 % of control
dose: 200.0 mg/kg/injection, schedule: Q07DX003 (ip), vehicle: Klucel (hydroxypropylcellulose) (HPC)
  T/C: 59 % of control

## CCC(C)C(=O)O[C@H]1C(=O)O[C@@H]2C[C@H]3C(C)=CC(=O)[C@@H](O)[C@]3(C)[C@H]3[C@@H](O)[C@H](O)[C@@]4(C)OC[C@]32[C@@H]14 (some centres undefined)
dose: 1.25 mg/kg/injection, schedule: Q07DX002 (ip), vehicle: saline + alcohol
  T/C: 45 % of control
dose: 5.0 mg/kg/injection, schedule: Q07DX002 (ip), vehicle: saline + alcohol
  T/C: 27 % of control and 50 % of control

## CS(=O)(=O)c1ncc(Br)cn1
dose: 6.25 mg/kg/injection, schedule: Q07DX002 (ip), vehicle: saline with Tween-80
  T/C: 106 % of control
[6]
  T/C: 76 % of control
[7]
  T/C: 94 % of control
[8]
  T/C: 113 % of control
[9]
  T/C: 106 % of control

## CC(Oc1ccccc1-c1ccccc1)C(=O)N(C)C (centres undefined)
[8]
  T/C: 79 % of control and 82 % of control
[9]
  T/C: 74 % of control and 78 % of control
[10]
  T/C: 56 % of control and 75 % of control
dose: 800.0 mg/kg/injection, schedule: Q07DX002 (ip), vehicle: saline with Tween-80
  T/C: 49 % of control and 68 % of control

## C1CN2CN3CCN(CN1C3)C2
[2]
  T/C: 111 % of control
[4]
  T/C: 166 % of control
[5]
  T/C: 115 % of control

## [O-][n+]1c(CN2CCCCC2)nc2cccc3c2c1-c1ccccc1-3
[6]
  T/C: 66 % of control
[7]
  T/C: 47 % of control
[9]
  T/C: 57 % of control
[10]
  T/C: 72 % of control and 81 % of control

— PubChem BioAssay AID212 (DTP/NCI, 2004)
